Measurements taken from patent US11419870B2, “Intermittent dosing of MDM2 inhibitor” (Novartis AG, priority 2014, dated 2022).

Tests used:
[1] = Tolerability in SJSA-1 tumor-bearing nude rat (body weight, survival); format: in vivo
Description: Subcutaneous tumors were induced by concentrating 1.0×10^7 SJSA-1 cells in 50% Matrigel® and injecting in the right flank of Harlan nude rats.
[formula] Similarly, the body-weight (BW) of the animal was measured three times per week allowing calculation at any particular time-point relative to the day of initiation of treatment (day 0) of the percentage change in BW (Δ % BW).

Rat Bbc3 (PUMA) = experiment: mRNA in situ hybridization of host tissues; format: in vivo; conditions: i.v. 20 mg/kg
Description: In situ hybridization was performed using the QuantiGene ViewRNA FFPE Assay kit (Affymetrix/Panomics) following the manufacturer's protocol. Gene-specific probe sets for rat Ubc (Ubiquitin C) and Bbc3 (PUMA) mRNAs were custom-designed and synthesized by Affymetrix. Bbc3 probes were used in type 1/Fast Red and Ubc probes were used in type 6/Fast Blue. Slides were processed strictly following the QuantiGene protocol. […] Briefly, five micrometer sections were cut, fixed in 10% formaldehyde, deparaffinized and rehydrated. In order to increase accessibility to mRNAs, slides were then boiled in pre-treatment solution (Affymetrix) and digested with protease QF (Affymetrix) at optimal conditions. Sections were then hybridized for 3 h at 40° C. with custom-designed QuantiGene ViewRNA probes against Bbc3 and the control gene Ubc. A no-probe sample was utilized as a negative control per the Affymetrix manual's recommendations. […] LP-AP type 6 probe detection of signal was done with Fast Blue substrate (blue dots, Cy5 fluorescence) for 30 mn at RT in the dark, followed by LP-AP type 1 probe detection of signal with Fast Red Substrate (red dots, Cy3 fluorescence) for 30 mn at 40° C. […]

SJSA-1 tumor = experiment: Efficacy on SJSA-1 tumor-bearing nude rat (tumor volume); format: in vivo
Description: Subcutaneous tumors were induced by concentrating 1.0×10^7 SJSA-1 cells in 50% Matrigel® and injecting in the right flank of Harlan nude rats. Efficacy experiment could start 14 days post cell injection. […] The animals were treated either at a high dose (20 mg/kg i.v. or 27 mg/kg p.o.) once every 3 weeks (q3w) or at a high dose (15 mg/kg p.o.) followed 24 h later by a daily low dose treatment (3 mg/kg p.o., 2 weeks on/2 weeks off).
The tumor volume (TVol) and body-weight (BW) of the animal were measured three times per week allowing calculation at any particular time-point relative to the day of initiation of treatment (day 0) of the percentage change in TVol (Δ% TVol). Tumor response was quantified by the change in tumor volume (endpoint minus starting value in mm^3) as the T/C i.e.
[formula] In the case of a tumor regression or to assess the percentage of change in TVol, the tumor response was quantified by the percentage of regression of the starting TVol, ie

[2] = test system: p21, Mdm2 and cleaved Caspase-3 in jejunum and bone marrow (sternum); experiment: Immunohistochemistry of host tissues after i.v. treatment; format: in vivo, rat; conditions: i.v. 20 mg/kg
Description: Sections were cut at 3 μm using a microtome. p21 and cleaved Caspase-3 immunohistochemistry was performed on a Ventana Discovery XT automated immunostainer using the OmniMap anti Mouse or Rabbit HRP secondary reagent and the ChromoMap DAB chromogen system (Ventana/Roche Diagnostics GmbH, Mannheim, Germany). […] The primary antibody was applied manually at the desired dilution in Dako antibody diluent, followed by incubation for 1 hour at room temperature. Corresponding negative controls were incubated with AbD only. Counterstaining of sections was done using hematoxylin (Ventana/Roche Diagnostics). After the automated staining run, slides were dehydrated in a graded series of ethanol, cleared in xylene and mounted with Pertex mounting medium.

[3] = i.v. q3w 20 mg/kg, three weeks post first treatment

COc1ncc(-c2nc3c(n2C(C)C)[C@H](c2ccc(Cl)cc2)N(c2cc(Cl)cn(C)c2=O)C3=O)c(OC)n1 [Compound A, (S)-5-(5-Chloro-1-methyl-2-oxo-1,2-dihydro-pyridin-3-yl)-6-(4-chloro-phenyl)-2-(2,4-dimethoxy-pyrimidin-5-yl)-1-isopropyl-5,6-dihydro-1H-pyrrolo[3,4-d]imidazol-4-one]
ABW (%) ([1]; i.v. q3w 13.7 mg/kg, week 1 post treatment): 2.7 ± 0.9%
ABW (%) ([1]; i.v. q3w 13.7 mg/kg, week 2 post treatment): 7.5 ± 1.0%
ABW (%) ([1]; i.v. q3w 18.2 mg/kg, week 1 post treatment): 2.5 ± 2.6%
ABW (%) ([1]; i.v. q3w 18.2 mg/kg, week 2 post treatment): 9.1 ± 1.9%
ABW (%) ([1]; i.v. q3w 18.2 mg/kg, week 3 post treatment): 11.9 ± 2.7%
ABW (%) ([1]; i.v. q3w 18.2 mg/kg, week 5 post treatment): 10.6 ± 2.3%
ABW (%) ([1]; i.v. q3w 18.2 mg/kg, week 6 post treatment): 5.9 ± 7.9%
sacrifice because of excessive body weight (BW) loss ([1]; single i.v. 20 mg/kg, day 9 post treatment): One rat had to be sacrificed
time of maximum increase in Puma (Bbc3) mRNA (Rat Bbc3 (PUMA); jejunum section, post last treatment): 3 h
time of return of Puma mRNA to baseline (Rat Bbc3 (PUMA); post treatment): 7 days
tumor regression (SJSA-1 tumor; i.v. q3w 20 mg/kg, after the second treatment): 100%
rats with partial response (more than 50% regression) (SJSA-1 tumor; [3]): 2
tumor regression on average (SJSA-1 tumor; [3]): 6%
SJSA-1 tumor regression (SJSA-1 tumor; p.o. q3w 27 mg/kg, after two cycles (after the second treatment)): 27%
time of maximum increase in p21, Mdm2 and cleaved Caspase-3 ([2]; jejunum and bone marrow (sternum)): 3 h
time of return of all staining to baseline ([2]; post treatment): 7 days
